Data reported in patent US8222247B2, “Modulators of glucocorticoid receptor, AP-1, and/or NF-kappabeta activity and use thereof” (Bristol-Myers Squibb Company, priority 2006, dated 2012).

Biological target: T1, human glucocorticoid receptor (Homo sapiens, UniProt P04150)
T1 construct: purified human recombinant full-length glucocorticoid receptor (2 nM); purchased Invitrogen Part #2893
T1 sequence (P04150 1-777): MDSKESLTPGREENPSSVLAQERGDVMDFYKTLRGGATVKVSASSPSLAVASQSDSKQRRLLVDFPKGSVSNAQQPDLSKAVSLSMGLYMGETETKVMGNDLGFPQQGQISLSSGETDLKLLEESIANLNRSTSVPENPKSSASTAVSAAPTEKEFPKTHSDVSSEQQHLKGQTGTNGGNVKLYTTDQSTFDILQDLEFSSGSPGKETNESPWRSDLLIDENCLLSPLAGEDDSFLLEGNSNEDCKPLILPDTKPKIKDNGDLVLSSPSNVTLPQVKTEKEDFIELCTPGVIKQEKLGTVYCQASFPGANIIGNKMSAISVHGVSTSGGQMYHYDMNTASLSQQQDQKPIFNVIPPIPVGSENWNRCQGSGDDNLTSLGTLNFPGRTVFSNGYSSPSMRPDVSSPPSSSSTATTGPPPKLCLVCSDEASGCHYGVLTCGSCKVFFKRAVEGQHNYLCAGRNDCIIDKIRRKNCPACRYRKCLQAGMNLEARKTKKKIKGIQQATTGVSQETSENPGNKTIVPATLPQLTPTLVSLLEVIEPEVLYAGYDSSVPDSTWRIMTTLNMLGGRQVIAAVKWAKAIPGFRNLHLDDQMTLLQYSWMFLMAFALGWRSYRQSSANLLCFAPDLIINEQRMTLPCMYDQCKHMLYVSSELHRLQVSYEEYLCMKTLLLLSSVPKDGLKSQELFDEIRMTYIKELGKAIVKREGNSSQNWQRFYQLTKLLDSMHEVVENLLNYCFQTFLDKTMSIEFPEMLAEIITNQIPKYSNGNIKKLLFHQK
Test: Glucocorticoid Receptor Binding Assay (I), fluorescence polarization competitor kit
Settings: purified human recombinant full-length GR, Fluormone GS Red
Description: Glucocorticoid Receptor Binding Assay (I)^a
In order to assess the affinity of test compounds for the human glucocorticoid receptor, a commercially available kit was used (Glucocorticoid Receptor Competitor Assay Kit, Invitrogen Part #2893). Briefly, purified human recombinant full-length glucocorticoid receptor (2 nM) was mixed with fluorescently labeled glucocorticoid (1 nM Fluormone GS Red) in the presence or absence of test compound. After two hour incubation at room temperature in the dark, the fluorescence polarization (FP) of the samples was measured. The FP of a mixture of receptor, fluorescent probe (i.e. Fluormone GS Red) and 5 μM dexamethasone represented background fluorescence or 100% inhibition, whereas, the FP of the mixture without dexamethasone (but in the presence of vehicle) was taken to be 100% binding. The percentage inhibition of test compounds were then compared to the sample with 5 μM dexamethasone and expressed as % relative binding activity with dexamethasone being 100% and no inhibition is 0%. Test compounds were analyzed in the concentration range from 8.5E-05 μM to 5 μM.

Going from CCCN(CCC)C(=O)c1ccc(-c2ccc([C@H](c3cccc(F)c3)C(C)(C)C(=O)Nc3nncs3)s2)cc1 [Example 72, 4-(5-((1R)-1-(3-fluorophenyl)-2,2-dimethyl-3-oxo-3-(1,3,4-thiadiazol-2-ylamino)propyl)-2-thienyl)-N,N-dipropylbenzamide] to CCNC(=O)c1ccc(-c2ccc([C@H](c3cccc(F)c3)C(C)(C)C(=O)Nc3nncs3)s2)cc1 [Example 73, N-ethyl-4-(5-((1R)-1-(3-fluorophenyl)-2,2-dimethyl-3-oxo-3-(1,3,4-thiadiazol-2-ylamino)propyl)-2-thienyl)benzamide], the Ki falls from 29.8 nM to 6.13 nM (4.9-fold). The second binds more tightly here.

CC(C)(C(=O)Nc1nncs1)[C@@H](c1cccc(F)c1)c1ccc(-c2ccc(C(N)=O)cc2)s1 [Example 74, 4-(5-((1R)-1-(3-fluorophenyl)-2,2-dimethyl-3-oxo-3-(1,3,4-thiadiazol-2-ylamino)propyl)-2-thienyl)benzamide] and CNC(=O)c1ccc(-c2ccc([C@H](c3cccc(F)c3)C(C)(C)C(=O)Nc3nncs3)s2)cc1 [Example 75, 4-(5-((1R)-1-(3-fluorophenyl)-2,2-dimethyl-3-oxo-3-(1,3,4-thiadiazol-2-ylamino)propyl)-2-thienyl)-N-methylbenzamide] are within 1.5-fold of each other in Ki: 2.24 nM for the first, 1.52 nM for the second.

Compared with CC(C)(C)NC(=O)c1ccc(-c2ccc([C@H](c3cccc(F)c3)C(C)(C)C(=O)Nc3nncs3)s2)cc1 [Example 76, N-tert-butyl-4-(5-((1R)-1-(3-fluorophenyl)-2,2-dimethyl-3-oxo-3-(1,3,4-thiadiazol-2-ylamino)propyl)-2-thienyl)benzamide], CC(C)(C(=O)Nc1nncs1)[C@@H](c1cccc(F)c1)c1ccc(-c2ccc(C(=O)NC3CC3)cc2)s1 [Example 77, N-cyclopropyl-4-(5-((1R)-1-(3-fluorophenyl)-2,2-dimethyl-3-oxo-3-(1,3,4-thiadiazol-2-ylamino)propyl)-2-thienyl)benzamide] is 6.4-fold lower in Ki: 27 nM for the first, 4.19 nM for the second. The second binds more tightly here.

Compared with CC(C)(C(=O)Nc1nncs1)[C@@H](c1cccc(F)c1)c1ccc(-c2ccc(C(=O)O)c(F)c2)s1 [Example 78, 2-fluoro-4-(5-((1R)-1-(3-fluorophenyl)-2,2-dimethyl-3-oxo-3-(1,3,4-thiadiazol-2-ylamino)propyl)-2-thienyl)benzoic acid], CC(C)(C(=O)Nc1nncs1)[C@@H](c1cccc(F)c1)c1ccc(-c2ccc(C(=O)N3CCC3)c(F)c2)s1 [Example 82, (3R)-3-(5-(4-(1-azetidinylcarbonyl)-3-fluorophenyl)-2-thienyl)-3-(3-fluorophenyl)-2,2-dimethyl-N-1,3,4-thiadiazol-2-ylpropanamide] is 9.2-fold lower in Ki: 24.5 nM for the first, 2.66 nM for the second. The second binds more tightly here.

CC(C)(C(=O)Nc1nncs1)[C@@H](c1cccc(F)c1)c1ccc(-c2ccc(C(=O)N3CCC3)cc2)s1 [Example 81, (3R)-3-(5-(4-(1-azetidinylcarbonyl)phenyl)-2-thienyl)-3-(3-fluorophenyl)-2,2-dimethyl-N-1,3,4-thiadiazol-2-ylpropanamide] and C[C@H](C(=O)Nc1nncs1)[C@@H](c1cccc(F)c1)c1ccc(-c2ccc(C(=O)N3CCOCC3)cc2)s1 [Example 108, (2S,3S)-3-(3-fluorophenyl)-2-methyl-3-(5-(4-(4-morpholinylcarbonyl)phenyl)-2-thienyl)-N-1,3,4-thiadiazol-2-ylpropanamide] are within 1.5-fold of each other in Ki: 4.32 nM for the first, 5.39 nM for the second.

Going from CN(C)C(=O)c1ccc(-c2ccc(C(c3cc(F)cc(F)c3)C(C)(C)C(=O)Nc3nncs3)s2)cc1Cl (stereo not shown) [Example 91, 2-chloro-4-(5-(1-(3,5-difluorophenyl)-2,2-dimethyl-3-oxo-3-(1,3,4-thiadiazol-2-ylamino)propyl)-2-thienyl)-N,N-dimethylbenzamide] to CCN(C)C(=O)c1ccc(-c2ccc(C(c3cc(F)cc(F)c3)C(C)(C)C(=O)Nc3nncs3)s2)cc1 (stereo not shown) [Example 92, 4-(5-(1-(3,5-difluorophenyl)-2,2-dimethyl-3-oxo-3-(1,3,4-thiadiazol-2-ylamino)propyl)-2-thienyl)-N-ethyl-N-methylbenzamide], the Ki falls from 4.59 nM to 1.14 nM (4-fold). The second binds more tightly here.

First: C[C@H](C(=O)Nc1nncs1)[C@@H](c1cccc(F)c1)c1ccc(Br)s1 [Example 94, (2S,3S)-3-(5-bromo-2-thienyl)-3-(3-fluorophenyl)-2-methyl-N-1,3,4-thiadiazol-2-ylpropanamide]
Second: C[C@H](C(=O)Nc1nncs1)[C@H](c1cccc(F)c1)c1ccc(Br)s1 [Example 95, (2S,3R)-3-(5-bromo-2-thienyl)-3-(3-fluorophenyl)-2-methyl-N-1,3,4-thiadiazol-2-ylpropanamide]
The Ki of the first is 5.4-fold higher: 4.11 nM for the first, 0.76 nM for the second.

First: C[C@@H](C(=O)Nc1nncs1)[C@H](c1cccc(F)c1)c1ccc(Br)s1 [Example 97, (2R,3R)-3-(5-bromo-2-thienyl)-3-(3-fluorophenyl)-2-methyl-N-1,3,4-thiadiazol-2-ylpropanamide]
Second: C[C@H](C(=O)Nc1nncs1)[C@@H](c1cccc(F)c1)c1ccc(-c2ccc(C(=O)N(C)C)cc2)s1 [Example 125, 4-(5-((1S,2S)-1-(3-fluorophenyl)-2-methyl-3-oxo-3-(1,3,4-thiadiazol-2-ylamino)propyl)-2-thienyl)-N,N-dimethylbenzamide]
The Ki of the first is 2.9-fold lower: 1.96 nM for the first, 5.71 nM for the second. The first binds more tightly here.

Going from CCN(C)C(=O)c1ccc(-c2ccc([C@H](c3cccc(F)c3)[C@H](C)C(=O)Nc3nncs3)s2)cc1 [Example 106, N-ethyl-4-(5-((1S,2S)-1-(3-fluorophenyl)-2-methyl-3-oxo-3-(1,3,4-thiadiazol-2-ylamino)propyl)-2-thienyl)-N-methylbenzamide] to C[C@H](C(=O)Nc1nncs1)[C@H](c1cccc(F)c1)c1ccc(-c2ccc(C(=O)N(C)C)cc2)s1 [Example 128, 4-(5-((1R,2S)-1-(3-fluorophenyl)-2-methyl-3-oxo-3-(1,3,4-thiadiazol-2-ylamino)propyl)-2-thienyl)-N,N-dimethylbenzamide], the Ki rises from 2.44 nM to 277 nM (110-fold). The first binds more tightly here.

Going from C[C@@H](C(=O)Nc1nncs1)[C@H](c1cccc(F)c1)c1ccc(-c2ccc(C(=O)N3CCC3)c(F)c2)s1 [Example 122, (2R,3R)-3-(5-(4-(1-azetidinylcarbonyl)-3-fluorophenyl)-2-thienyl)-3-(3-fluorophenyl)-2-methyl-N-1,3,4-thiadiazol-2-ylpropanamide] to C[C@H](C(=O)Nc1nncs1)[C@@H](c1cccc(F)c1)c1ccc(-c2ccc(C(=O)N3CCOCC3)c(Cl)c2)s1 [Example 124, (2S,3S)-3-(5-(3-chloro-4-(4-morpholinylcarbonyl)phenyl)-2-thienyl)-3-(3-fluorophenyl)-2-methyl-N-1,3,4-thiadiazol-2-ylpropanamide], the Ki rises from 1.91 nM to 7.27 nM (3.8-fold).

Going from C[C@H](C(=O)Nc1nncs1)[C@@H](c1cccc(F)c1)c1ccc(-c2ccc(C(=O)N(C)C)c(Cl)c2)s1 [Example 123, 2-chloro-4-(5-((1S,2S)-1-(3-fluorophenyl)-2-methyl-3-oxo-3-(1,3,4-thiadiazol-2-ylamino)propyl)-2-thienyl)-N,N-dimethylbenzamide] to C[C@H](C(=O)Nc1nncs1)[C@H](c1cccc(F)c1)c1ccc(-c2ccc(C(=O)N(C)C)c(Cl)c2)s1 [Example 126, 2-chloro-4-(5-((1R,2S)-1-(3-fluorophenyl)-2-methyl-3-oxo-3-(1,3,4-thiadiazol-2-ylamino)propyl)-2-thienyl)-N,N-dimethylbenzamide], the Ki rises from 7.16 nM to 220 nM (31-fold). The first binds more tightly here.

C[C@H](C(=O)Nc1nncs1)[C@H](c1cccc(F)c1)c1ccc(-c2ccc(C(=O)N3CCOCC3)c(Cl)c2)s1 [Example 127, (2S,3R)-3-(5-(3-chloro-4-(4-morpholinylcarbonyl)phenyl)-2-thienyl)-3-(3-fluorophenyl)-2-methyl-N-1,3,4-thiadiazol-2-ylpropanamide] and C[C@@H](C(=O)Nc1nncs1)[C@@H](c1cccc(F)c1)c1ccc(-c2ccc(C(=O)N3CCOCC3)c(Cl)c2)s1 [Example 130, (2R,3S)-3-(5-(3-chloro-4-(4-morpholinylcarbonyl)phenyl)-2-thienyl)-3-(3-fluorophenyl)-2-methyl-N-1,3,4-thiadiazol-2-ylpropanamide] are within 1.5-fold of each other in Ki: 148 nM for the first, 160 nM for the second.

C[C@@H](C(=O)Nc1nncs1)[C@@H](c1cccc(F)c1)c1ccc(-c2ccc(C(=O)N(C)C)c(Cl)c2)s1 [Example 129, 2-chloro-4-(5-((1S,2R)-1-(3-fluorophenyl)-2-methyl-3-oxo-3-(1,3,4-thiadiazol-2-ylamino)propyl)-2-thienyl)-N,N-dimethylbenzamide] was tested, and the Ki was 158 nM.
